# Key:
# [1] = test system: KM12C cell line carrying RON mutant (Δ160); experiment: Action mechanism in KM12C, Western blotting of related proteins; assay type: cell-based, human; conditions: 1 μM, 5 μM, 48 hours
# Protocol: KM12C cell line was seeded at 5×10^5 cells onto a 100-mm plate. Then, after 24 hours, the cells were subjected to treatment with Example 18 at respective concentrations (1 μM, 5 μM) for 48 hours. After 48 hours, the cells and cell suspensions were collected (1,500 rpm, 3 minutes), and changes in expression of related proteins were checked with Western blotting. RIPA Lysis Buffer (T&I) was added to the respective cells so as to achieve lysis. Then, BCA kit (Pierce) was used to quantify proteins. Then, the proteins were loaded onto 8% SDS-polyacrylamide, and electrophoresis was performed at 125 V.
# Then, blocking was performed with 5% non-fat skim milk-TBST solution for 1 hour. Subsequently, the proteins were reacted with primary antibodies, which were diluted 1:1,000 in 5% non-fat skim milk-TBST solution, at 4° C. for 24 hours or 48 hours. Then, washing with TBST was performed three times. The resultant was reacted with anti-rabbit and anti-mouse IgG conjugated HRP secondary antibodies, which were diluted at 1:1,000, at room temperature for 2 hours. Then, washing with TBST was performed three times. Subsequently, the membrane was treated with the ECL solution (GE Healthcare), and developed by exposure to an X-ray film. Then, the bands were checked.
# KM12C cell line tumor [2] = experiment: Efficacy in animal model transplanted with KM12C, 30 and 50 mpk (Experimental Example 11); assay type: in vivo, BALB/c nude mice; conditions: once a day for 2 weeks
# Protocol: 5-Week-old female BALB/c nude mice were purchased and acclimatized for 1 week. Then, human-derived colon cancer cell line KM12C (1.5×10^6 cells/mice) was diluted in PBS, and injected subcutaneously (100 μl) into the right dorsal side of the mice. Comparative Examples 1 and Example 18 were orally administered when the tumor reached a size of about 100 mm^3. The drug was administered at 30 mpk and 50 mpk once a day for 2 weeks, and tumor size and body weight were measured twice a week. […] After completion of the drug administration, the experimental animals were euthanized, and then the tumors were extracted and weighed to perform comparative analysis.
# KM12C cell line tumor [3] = experiment: Effective dose concentration in animal model transplanted with KM12C; assay type: in vivo, BALB/c nude mice; conditions: once a day for 2 weeks
# Protocol: 5-Week-old female BALB/c nude mice were purchased and acclimatized for 1 week. Then, human-derived colon cancer cell line KM12C (1.5×10^6 cells/mice) was diluted in PBS, and injected subcutaneously (100 μl) into the right dorsal side of the mice. Example 18 was orally administered at respective doses when the tumor reached a size of about 100 mm^3. The drug was administered once a day for 2 weeks, and tumor size and body weight were measured twice a week to perform comparative analysis. After completion of the drug administration, the experimental animals were euthanized, and then the tumors were extracted and weighed to perform comparative analysis.
# [4] = test system: colon cancer patient-derived cell line expressing active RON; experiment: Cell death in colon cancer patient-derived cell line expressing active RON (immunofluorescence); assay type: cell-based, human; conditions: 5 ug, 48 hours, KRAS normal
# Protocol: (§1) The following condition and methods were used to perform the present experiment. […] Then, the respective cell lines were seeded at 5×10^5 cells onto 24-well plates, in which one sterile 12 mmΦ microscope cover glass was placed on each well, and incubated. The respective colon cancer patient-derived cell lines under incubation were subjected to treatment with Example 18 and Comparative Example 1, respectively, at 5 ug, and then incubated for 48 hours. Each incubated plate was washed twice with PBS, and then fixed with 100% Me-OH at room temperature for 5 minutes. The Me-OH was removed, and washing with PBS was performed three times for 5 minutes each. Then, 100 ul of 0.1% Triton X-100 (in PBS) was dispensed thereinto and permeabilization was allowed to occur for 5 minutes. Washing with PBS was performed three times for 5 minutes each, and then PBS was added thereto to prevent drying. Parafilm was attached to the 24-well plate cover, and then PBS-T (PBS+0.1% Tween 20) containing 3% BSA was dropped by 20 μl onto the parafilm. […] Then, washing with PBS-T (PBS+0.1% Tween 20) was performed twice, and a fluorescence microscope was used to identify the staining. […] Then, the cover glass was placed thereon, and a fluorescence microscope was used to take a fluorescence image.
# [5] = test system: colon cancer patient-derived cell line in which RON is not expressed; experiment: Cell death in colon cancer patient-derived cell line, active RON negative (immunofluorescence); assay type: cell-based, human; conditions: 5 ug, 48 hours, KRAS normal
# Protocol: as §1
smiles,measurement,setting,value
"CCOc1ccn(-c2ccc(F)cc2)c(=O)c1C(=O)Nc1ccc(Oc2ccnc3cc(-c4ccc(CN5CCOCC5)cn4)sc23)c(F)c1.Cl [Example 18, 4-ethoxy-N-[3-fluoro-4-({2-[5-(morpholinomethyl)pyridin-2-yl]thieno[3,2-b]pyridine-7-yl}oxy)phenyl]-1-(4-fluorophenyl)-2-oxo-1,2-dihydropyridine-3-carboxamide hydrochloride]",active RON (Western blotting),[1],decreases
same,"p-ERK, p-Src, p-Akt, and p-Gab1 (Western blotting)",[1],decrease
same,TGI (%),KM12C cell line tumor [2]; 30 mg/kg oral,82.4%
same,TGI (%),KM12C cell line tumor [2]; 50 mg/kg oral,84.8%
same,change in mouse body weight,KM12C cell line tumor [2]; 30 mpk and 50 mpk oral,little change in mouse body weight
same,tumor growth inhibition efficacy,KM12C cell line tumor [2]; 30 mpk and 50 mpk oral,very high tumor growth inhibition efficacy
same,tumor growth,KM12C cell line tumor [3]; oral at respective doses,inhibited in a concentration-dependent manner
same,effective dose concentration,KM12C cell line tumor [3]; oral,5.214 mpk
same,cell death-inducing efficacy (cleaved caspase 3 immunofluorescence),[4],exhibits cell death-inducing efficacy
same,reactivity to drug treatment (cell death),[5],no reactivity

# Reference: patent US20230172914A1, “BIOMARKER-BASED THERAPEUTIC COMPOSITION” (WELLMARKER BIO CO., LTD., priority 2019, published 2023)
